One assay concerns the target MLK3 (Homo sapiens, UniProt Q16584). The assay can be described thus: ICKP radiometric kinase assay. The assay is classed as biochemical. Particulars: read-out: % AR (% kinase activity remaining).
Assay [1] concerns select off-target kinases. The assay can be described thus: Off-target kinase inhibition (Z’-LYTE/Adapta), comparison. Particulars: from Table 1 IC50 values. The format is biochemical.
Assay [2] has as its target T1, MELK (Homo sapiens, UniProt Q14680). Put plainly: Cellular kinase engagement assay (KiNativ), ATP-biotin probe pull-down. The format is cell-based. To be noted: MDA-MB-468 cells, different doses, with MG132, 1 hour. The text has this:
(§1) After confirming HTH-01-091 as a potent MELK inhibitor in biochemical assays, we next investigated whether HTH-01-091 engages MELK in cells. We performed a KiNativ assay to measure HTH-01-091 engagement with the ATP binding pocket of MELK, which would prevent active-site labeling from a lysine-reactive ATP-biotin probe ([Patricelli et al., 2007]). […] As a control, ERK1/2 pull-down was not affected by HTH-01-091 treatment, consistent with our profiling data showing no binding affinity of HTH-01-091 to ERK1/2 (Figure 2A, Figure 1—source data 1).
(§2) Figure 2. […] (A) Immunoblots analyzing the pull-down levels of MELK and ERK1/2 by ATP-biotin probes and streptavidin beads from MDA-MB-468 cells treated with different doses of HTH-01-091 and […] MG132 for 1 hour. […] See also Figure 2—figure supplement 1 for rescue experiments using carfilzomib and MLN4924. (C) 3-day antiproliferation assays of HTH-01-091 and other MELK inhibitors tested in MDA-MB-468 (basal) and ZR-75-1 (luminal) cells. Values represent two independent experimental mean ±SD. Error bars shorter than the height of the symbol are not drawn. […] Figure 2—figure supplement 1. […]
(§3) MDA-MB-468 cells on 10 cm plates were treated with HTH-01-091 at indicated concentrations and MG132 (10 μM) for an hour. […] The beads were boiled at 95°C for 10 min and analyzed by immunoblotting.

For a further assay, the system named is ERK1/2. Described as above. The format is cell-based. To be noted: MDA-MB-468 cells, with MG132, 1 hour.
Description: as §1, §2, §3

The target of the next assay is 141 kinases. The assay can be described thus: ICKP panel radiometric kinase profiling (summary). The assay is classed as biochemical. Particulars: radioactive filter-binding assay; kinases inhibited more strongly than MELK in the ICKP panel; read-out: IC50 values of potential off-target kinases.
Assay [3] concerns the target T1, MELK. The assay can be described thus: Z’-LYTE enzymatic assay. The format is biochemical.
Assay [4] concerns WT and MELK−/− MDA-MB-468 cells. Put plainly: 3-day proliferation assays comparing WT and MELK−/− cells. The format is cell-based. Particulars: clone E9 vs clone C7. The text has this: We compared a WT clone (clone E9) and a MELK−/− clone (clone C7) with the parental cell line, and observed no significant difference in growth rate or cell cycle distribution (Figure 3A,B,C).
Figure 3. WT and MELK−/− MDA-MB-468 cells have similar growth rates, cell cycle distribution, and sensitivity to MELK inhibitors. (A) Immunoblots for MELK and GAPDH in WT (clone E9) and MELK−/− (clone C7) clones isolated from MDA-MB-468 cells transfected with sgMELK-3 and Cas9. See also Figure 3—figure supplements 1 and 2, and Figure 3—source data 1 for the details of the generation of MELK−/− clones. (B) 5-day proliferation curves comparing the growth rates of parental, WT, and MELK−/− MDA-MB-468 cells. Values represent two independent experimental mean ±SD. (C) Cell cycle analysis comparing WT and MELK−/− MDA-MB-468 cells. Values represent triplicate mean ±SD. […] Values represent duplicate mean ±SD. Error bars shorter than the height of the symbol are not drawn. Figure 3—source data 1. Genotype analysis of single cell clones selected from MDA-MB-468 cells transfected with Cas9/sgMELK-3. Figure 3—figure supplement 1. CRISPR/Cas9-mediated knockout of MELK in MDA-MB-468 cells. (A) Tracking of Indels by Decomposition (TIDE) analysis ([Brinkman et al., 2014]) of MDA-MB-468 cells transfected with Cas9/sgMELK-3 and enriched by the transfection marker OFP. […]

The subject of a further assay is AMPK. Put plainly: ICKP radiometric kinase assay. Particulars: 1 μM.

Molecules are shown by their SMILES. Where two headings read alike, the source gives them in different places. Where only a bound is given, the exact number is not on record here.

T1 sequence (Q14680 whole entry): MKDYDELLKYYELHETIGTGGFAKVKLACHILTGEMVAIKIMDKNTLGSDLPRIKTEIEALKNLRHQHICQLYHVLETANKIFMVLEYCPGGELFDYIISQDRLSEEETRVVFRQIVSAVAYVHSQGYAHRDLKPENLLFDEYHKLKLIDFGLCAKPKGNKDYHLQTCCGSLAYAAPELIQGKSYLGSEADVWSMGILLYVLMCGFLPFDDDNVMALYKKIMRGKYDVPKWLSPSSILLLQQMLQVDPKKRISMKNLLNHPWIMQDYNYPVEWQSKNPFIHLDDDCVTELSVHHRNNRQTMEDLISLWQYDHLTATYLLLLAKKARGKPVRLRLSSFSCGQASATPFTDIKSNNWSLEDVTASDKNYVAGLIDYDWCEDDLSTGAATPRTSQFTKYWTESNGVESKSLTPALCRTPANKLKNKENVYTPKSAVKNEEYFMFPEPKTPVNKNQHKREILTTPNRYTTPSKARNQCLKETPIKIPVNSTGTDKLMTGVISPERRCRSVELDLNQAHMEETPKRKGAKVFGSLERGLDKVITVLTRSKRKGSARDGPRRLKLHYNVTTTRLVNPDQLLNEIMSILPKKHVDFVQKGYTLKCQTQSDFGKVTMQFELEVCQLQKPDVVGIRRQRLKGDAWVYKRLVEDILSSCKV
Sequence of MLK3 (Q16584 whole entry): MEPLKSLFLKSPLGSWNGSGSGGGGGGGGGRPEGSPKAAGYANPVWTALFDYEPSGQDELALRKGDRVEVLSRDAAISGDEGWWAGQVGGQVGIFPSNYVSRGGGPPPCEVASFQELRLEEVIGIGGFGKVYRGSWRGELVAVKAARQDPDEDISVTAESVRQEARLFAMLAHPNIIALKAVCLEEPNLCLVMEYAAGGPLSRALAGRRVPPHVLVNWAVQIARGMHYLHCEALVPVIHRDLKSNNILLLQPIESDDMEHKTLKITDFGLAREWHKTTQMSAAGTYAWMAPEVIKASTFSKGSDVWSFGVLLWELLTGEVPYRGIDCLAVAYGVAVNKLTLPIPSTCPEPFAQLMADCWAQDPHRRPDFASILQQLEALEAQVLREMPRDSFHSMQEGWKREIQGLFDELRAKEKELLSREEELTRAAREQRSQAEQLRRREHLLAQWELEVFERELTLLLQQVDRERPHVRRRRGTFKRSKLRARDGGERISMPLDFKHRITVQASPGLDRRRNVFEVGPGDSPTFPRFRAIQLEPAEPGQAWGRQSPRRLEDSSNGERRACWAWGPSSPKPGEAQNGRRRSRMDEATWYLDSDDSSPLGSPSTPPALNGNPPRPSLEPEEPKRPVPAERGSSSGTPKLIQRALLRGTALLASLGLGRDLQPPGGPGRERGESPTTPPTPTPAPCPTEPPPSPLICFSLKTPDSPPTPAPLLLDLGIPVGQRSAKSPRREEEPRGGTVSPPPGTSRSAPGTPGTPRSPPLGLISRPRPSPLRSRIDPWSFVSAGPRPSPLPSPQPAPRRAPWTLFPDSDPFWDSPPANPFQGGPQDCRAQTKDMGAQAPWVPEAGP

On to `CN(C)C[C@H]1CC[C@H](N2C(=O)NCc3cnc4ccc(-c5cc(Cl)c(O)c(Cl)c5)cc4c32)CC1` [HTH-01-091, 9-(3,5-dichloro-4-hydroxyphenyl)-1-(trans-4-((dimethylamino)methyl)cyclohexyl)-3,4-dihydropyrimido[5,4 c]quinolin-2(1H)-one], for which the remaining activity at 1 µM on MLK3 came to 54%. In addition, the “reduced inhibition of the select off-target kinases compared with JW-7-25-1” value in assay [1] is on record as 20- to 140 fold. Besides, the “MELK pull-down by streptavidin beads (ATP-biotin probe)” value on MELK [2] was “dose-dependently decreased MELK pull-down”. In addition, the “ERK1/2 pull-down (control)” value in the assay with ERK1/2 is listed as “not affected”. Further, the IC50 is 42 to 109 nM on 141 kinases; 10.5 nM at MELK [3] (Z’-LYTE assay at [ATP]=apparent Km, read-out: Biochemical IC50 MELK); less than 20 nM on MELK [3] (measured by Z’LYTE biochemical assay, class symbols in Figure 2C, read-out: Potency (MELK)); 10.5 nM on MELK [3] (note column of Table 3, read-out: Note: MELK IC50).
As for `CC(=O)c1cnc2ccc(-c3cc(Cl)c(O)c(Cl)c3)nc2c1N[C@H]1CC[C@H](CN(C)C)CC1` [OTSSP167], the “difference in sensitivity between WT and MELK−/− cells” value in assay [4] is recorded as “did not observe differences in cell viability”. For the same molecule, the “% AR (% kinase activity remaining)” value with AMPK is given as 2%.

(Values after PMC5605198, “MELK is not necessary for the proliferation of basal-like breast cancer cells” (eLife, 2017).)
